Experimental data taken from PMC5484485, “In vitro and in vivo effects of kisspeptin antagonists p234, p271, p354, and p356 on GPR54 activation” (PLoS ONE, 2017).
Each block holds one molecule with its values, some of them ahead of it. Square brackets hold non-standard residues; d marks the D form. Ends that are not written are not given here.

What was measured:
human GPR54 [1] = biological target: T1, human GPR54 (Homo sapiens, UniProt Q969F8); assay: Flow cytometric calcium flux assay, response to peptide alone (agonist / intrinsic activity); type: cell-based; parameters: host or cells: rat hematopoietic CHEM1 cells expressing endogenous Galpha15; conditions: 10^-13 to 10^-5 M, n = 3; for EC50: CHEM1-GPR54 cells in suspension, Fluo-3 AM, flow cytometry; for intrinsic calcium response: any tested concentration
T1 sequence (Q969F8 whole entry): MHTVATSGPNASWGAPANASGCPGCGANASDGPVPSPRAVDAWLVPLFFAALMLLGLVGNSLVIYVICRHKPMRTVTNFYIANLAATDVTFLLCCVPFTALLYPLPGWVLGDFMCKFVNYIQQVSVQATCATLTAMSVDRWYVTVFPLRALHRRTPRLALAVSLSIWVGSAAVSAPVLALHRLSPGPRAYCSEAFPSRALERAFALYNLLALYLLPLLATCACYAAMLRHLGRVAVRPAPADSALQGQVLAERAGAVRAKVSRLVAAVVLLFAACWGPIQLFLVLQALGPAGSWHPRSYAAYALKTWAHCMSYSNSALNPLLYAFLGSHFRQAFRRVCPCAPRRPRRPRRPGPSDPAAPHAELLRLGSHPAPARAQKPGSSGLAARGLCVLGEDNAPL
Protocol: In vitro analyses of the effects of kisspeptin and kisspeptin antagonists, were performed using HT[…] cells (rat hematopoietic CHEM1 cells expressing endogenous Gα15 and, stably expressing the human GPR54 receptor (Millipore BV, the Netherlands), CHEM1-GPR54. Cells were counted and suspended in HBSS+++ at a concentration of 5*10^6 cells/ml. To load the cells with the fluorescent dye ester they were incubated in HBSS+++ adjusted to a concentration of 2 μM Fluo-3 AM (Molecular Probes, Life Technologies, the Netherlands) for 1h at 37°C under agitation in the dark. After incubation, the cells were washed by adding HBSS+++ to a volume of 10 ml followed by centrifugation (5 min, 150 x g) to remove excess of Fluo-3AM. […] Thereafter the tube was removed briefly and 25 μl peptide (see below) was added, after which aspiration and analysis continued. For statistical analyses fluorescent data recorded during the time interval 30-60 seconds after initiation of measurement were used. […] Experiments were performed 3 times. Representative flow cytometry results are depicted in Fig 1. […] We then assessed whether these antagonists could compete with KP10 for its receptor. […] For this purpose 25 μl quantities of the antagonists were added to 200 μl of Fluo-3 AM labelled cells (10^6 cells/ml) and incubated for 15 min. […] Peptides p354 and p356 were tested three times with both human and canine KP10; while peptides p234 and p271 were tested three times with human KP10 and once with canine KP10. […] A multivariate general linear model was set up to analyze differences in calcium response between the different concentrations, with Dunnett's test as a post hoc procedure for the antagonists and Bonferroni's test for the agonists.

CHEM1-GPR54 cells = biological target: T2, CHEM1-GPR54 cells (Homo sapiens, UniProt Q969F8); assay: Preliminary calcium flux assay with adherent CHEM1-GPR54 cells (unpublished); type: cell-based; conditions: too few repeats for statistics
T2 construct: host or cells: rat hematopoietic CHEM1 cells expressing endogenous Galpha15
T2 sequence (Q969F8 whole entry): as above

human GPR54 [2] = biological target: T1, human GPR54; assay: Flow cytometric calcium flux assay, KP10-induced response after 15 min pre-incubation with antagonist; type: cell-based; parameters: host or cells: rat hematopoietic CHEM1 cells expressing endogenous Galpha15; conditions: all concentrations 10^-13 to 10^-5 M; 10^-8 M KP10; 15 min pre-incubation; P = 1.00
Protocol: In vitro analyses of the effects of kisspeptin and kisspeptin antagonists, were performed using HT[…] cells (rat hematopoietic CHEM1 cells expressing endogenous Gα15 and, stably expressing the human GPR54 receptor (Millipore BV, the Netherlands), CHEM1-GPR54. Cells were counted and suspended in HBSS+++ at a concentration of 5*10^6 cells/ml. To load the cells with the fluorescent dye ester they were incubated in HBSS+++ adjusted to a concentration of 2 μM Fluo-3 AM (Molecular Probes, Life Technologies, the Netherlands) for 1h at 37°C under agitation in the dark. After incubation, the cells were washed by adding HBSS+++ to a volume of 10 ml followed by centrifugation (5 min, 150 x g) to remove excess of Fluo-3AM. […] Thereafter the tube was removed briefly and 25 μl peptide (see below) was added, after which aspiration and analysis continued. For statistical analyses fluorescent data recorded during the time interval 30-60 seconds after initiation of measurement were used. […] We then assessed whether these antagonists could compete with KP10 for its receptor. […] For this purpose 25 μl quantities of the antagonists were added to 200 μl of Fluo-3 AM labelled cells (10^6 cells/ml) and incubated for 15 min. […] Peptides p354 and p356 were tested three times with both human and canine KP10; while peptides p234 and p271 were tested three times with human KP10 and once with canine KP10. To analyze the effects of different concentrations of the KP antagonists on the calcium response due to KP10 addition, the differences in fluorescence before and after KP10 were calculated (the calcium response). The calcium response ratios were calculated as the calcium response of the CHEM1-GPR54 cells pre-incubated with different concentrations of KP antagonist and the control (the calcium response of the cells without KP antagonist). These calcium response ratios were log transformed and used for further analysis by univariate analysis of variance, with the Dunnett's test as post hoc test. The calcium response ratios were set as dependent variables and the different concentrations of the antagonists and the two types of KP10 were used as fixed factors. The residuals were normally distributed.

circulating LH / puberty = conditions: cited from earlier work
Protocol: The development of kisspeptin antagonists contributed to an improved understanding of the role of kisspeptin in the reproductive system. Roseweir et al. developed several KP10 analogues and tested their effect on inositol phosphate (IP) release in Chinese hamster ovarian (CHO) cells stably expressing the human GPR54. […] The kisspeptin antagonists were administered intravenously in a dose of 50 μg/kg/h, and had no effect on either the basal plasma LH concentration during the continuous administration or on the KP10-induced LH response. These findings are in line with a previous study in female dogs. […] Adult male rats received an intrape ...

human GPR54 [3] = biological target: T1, human GPR54; conditions: cited from earlier work
Excerpt: The development of kisspeptin antagonists contributed to an improved understanding of the role of kisspeptin in the reproductive system. Roseweir et al. developed several KP10 analogues and tested their effect on inositol phosphate (IP) release in Chinese hamster ovarian (CHO) cells stably expressing the human GPR54. […] The peptide antagonists are KP10 analogs with substitutions at several positions, which should result in good receptor binding affinity but reduced receptor activation. None of the peptides tested in the present study prevented or inhibited the KP10-stimulated calcium response and thus receptor activation.

kisspeptin receptor = conditions: ref unpublished data; cited from earlier work
Protocol: The following peptides were tested for antagonistic properties on the kisspeptin receptor: p234 ((D-Ala)-Asn-Trp-Asn-Gly-Phe-Gly-(D-Trp)-Arg-Phe-NH2), p271 (Arg-Arg-Met-Lys-Trp-Lys-Lys-Tyr-(D-Ala)-Asn-Trp-Asn-Gly-Phe-Gly-(D-Trp)-Arg-Phe-NH2), p354 ((D-Ala)-Tyr-Asn-Phe-Asn-Gly-Phe-Gly-(D-Trp)-Arg-Phe-NH2), and p356 ((D-Ala)-Tyr-Asn-Trp-Asn-Gly-Phe-Gly-(D-Trp)-Lys-Phe-NH2). Peptide 354 and p356 are next generation analogs refining p234.

plasma LH concentration = assay: Plasma LH in anestrous Beagle bitches during antagonist infusion and after cKP10 bolus; type: in vivo, dog; conditions: n = 6
Excerpt: Thirteen adult anestrous Beagle bitches were used for this study. Six dogs with a median age of 89 months (range 43–122 months) were used as control group, receiving cKP10 without an antagonist. Eight dogs with a median age of 52 months (range 31–116 months) were used for the antagonist experiments. One dog was first used in the control group and 12 months later for the antagonist experiments. Of the eight dogs used for the antagonist experiments, four received p271, p354, and p356. In two of the eight dogs both p354 and p356 were tested, while in the remaining two dogs only p271 was tested, in order to test every antagonist in 6 dogs. The time between testing of different kisspeptin antagonists was at least 5 days (range 5–15 days) to ensure that there were no peptide residues. Kisspeptin antagonist p234 per se was not tested in vivo because p271 is in fact p234 with a penetratin tag to enhance passage across the blood-brain barrier, as has been described for use with peripheral administration.
Kisspeptin antagonists (50 μg/kg/h) were administered continuously for three hours via a catheter in the cephalic vein. Two hours after the start of the infusion, a single bolus of cKP10 (0.5 μg/kg) was administered intravenously. Blood samples were collected from the jugular vein by venipuncture at -40 min and 0 min before the antagonist infusion, and then every 30 min for two hours. After the administration of cKP10, blood samples were collected at 10, 20, 40, and 60 min (i.e., 130, 140, 160, and 180 min after the start of the antagonist infusion).
As a control, KP stimulation tests (without the administration of a kisspeptin antagonist) were performed in six dogs. Blood samples were collected from the jugular vein by venipuncture at -40 min and 0 min before, and then at 10, 20, 40, and 60 min after administration of cKP10 (0.5 μg/kg). Plasma LH concentrations were measured in all blood samples.
Plasma LH concentrations were measured with a heterologous radioimmunoassay validated for the dog, as described previously. The intra- and interassay CVs for values above 0.5 μg/l were 2.3 and 10.5%, respectively, and the limit of quantitation was 0.3 μg/l.
In both groups of dogs (experimental and control), the basal plasma LH concentration was calculated for each dog as the mean of the values at –40 and 0 min before cKP10 or antagonist administration. All LH values that exceeded the mean of all basal samples plus 3 SD were attributed to pulsatile secretion and were treated as outliers and excluded from statistical analysis. Log transformation of plasma LH concentrations was used because data were not normally distributed. A linear mixed model was used to analyze differences in plasma LH concentrations before and after KP10, with or without a kisspeptin antagonist (group effects: p271, p354, p356, and controls), with Bonferroni correction. P<0.05 was considered significant.

[4] = antagonist 50 μg/kg/h iv, cKP10 0.5 μg/kg iv

- EC50 (human GPR54 [1]): 1.2 nM
Molecule: CC(C)C[C@H](NC(=O)CNC(=O)[C@H](Cc1ccccc1)NC(=O)[C@H](CO)NC(=O)[C@H](CC(N)=O)NC(=O)[C@H](Cc1c[nH]c2ccccc12)NC(=O)[C@H](CC(N)=O)NC(=O)[C@@H](N)Cc1ccc(O)cc1)C(=O)N[C@@H](CCCNC(=N)N)C(=O)N[C@@H](Cc1ccccc1)C(N)=O [hKP10, Tyr-Asn-Trp-Asn-Ser-Phe-Gly-Leu-Arg-Phe-NH2, reference compound]

- EC50 (human GPR54 [1]): 8 nM
Molecule: YNWNVFGLRY-NH2 [cKP10, Tyr-Asn-Trp-Asn-Val-Phe-Gly-Leu-Arg-Tyr-NH2, reference compound]

- inhibition of KP10-induced calcium response, adherent cells (CHEM1-GPR54 cells): could not be inhibited
- difference in calcium response ratio between controls and antagonist (human GPR54 [2]): not significant
Molecule: [dA]NWNGFG[dW]RF-NH2 [p234, kisspeptin antagonist, KP10 analog]
- effect of antagonist alone on basal plasma LH (circulating LH / puberty; intact rats and mice): did not lower the basal plasma LH concentration
- effect on circulating LH when co-administrated with KP10 (circulating LH / puberty; intracerebroventricular): prevented an increase in the circulating LH concentration
- effect on vaginal opening (indicator of puberty) (circulating LH / puberty; rats, intracerebroventricular): delayed vaginal opening
- intrinsic calcium response (human GPR54 [1]): no significant intrinsic calcium response
- inhibitory effect on IP release in vitro, rank among KP10 analogues (human GPR54 [3]; CHO cells stably expressing human GPR54): most potent inhibitory effect
- inhibition of KP10-induced inositol phosphate (IP) production (human GPR54 [3]; CHO cells that express GPR54): 93%

- difference in calcium response ratio between controls and antagonist (human GPR54 [2]): not significant
Molecule: [dA]YNFNGFG[dW]RF-NH2 [p354]
- binding and inhibition of kisspeptin action on inositol generation, potency range (kisspeptin receptor): nanomolar range
- Median (and range) plasma LH, t = 30 (plasma LH concentration; 30 min of antagonist infusion 50 μg/kg/h iv): 3.7 (2.1–13.1) μg/L
- Median (and range) plasma LH, t = 60 (plasma LH concentration; 60 min of antagonist infusion 50 μg/kg/h iv): 3.2 (2.2–7.2) μg/L
- Median (and range) plasma LH, t = 120 (plasma LH concentration; 120 min of antagonist infusion 50 μg/kg/h iv, before cKP10): 5.2 (2.6–15.7) μg/L
- median maximum increment in plasma LH concentration after cKP10 during antagonist administration (plasma LH concentration; [4]): 8.1 µg/L
- range of maximum increment in plasma LH concentration after cKP10 during antagonist administration (plasma LH concentration; [4]): 5.0 to 12.5 µg/L
- Median (and range) plasma LH, t = 130 / t = 10* (plasma LH concentration; antagonist infusion 50 μg/kg/h iv, 10 min after cKP10 0.5 μg/kg iv): 13.5 (8.4–20.3) μg/L
- Median (and range) plasma LH, t = 140 / t = 20* (plasma LH concentration; antagonist infusion 50 μg/kg/h iv, 20 min after cKP10 0.5 μg/kg iv): 10.0 (5.5–13.0) μg/L
- Median (and range) plasma LH, t = 160 / t = 40* (plasma LH concentration; antagonist infusion 50 μg/kg/h iv, 40 min after cKP10 0.5 μg/kg iv): 6.4 (4.7–9.1) μg/L
- Median (and range) plasma LH, t = 180 / t = 60* (plasma LH concentration; antagonist infusion 50 μg/kg/h iv, 60 min after cKP10 0.5 μg/kg iv): 4.7 (3.7–9.9) μg/L
- Median (and range) plasma LH, Basal (plasma LH concentration; before antagonist infusion (mean of -40 and 0 min per dog)): 4.2 (2.8–6.7) μg/L
- effect on basal plasma LH concentration (plasma LH concentration; continuous iv 50 μg/kg/h, anestrous bitches): did not cause significant alterations
- intrinsic calcium response (human GPR54 [1]): no significant intrinsic calcium response
